One series has as its system dogs. The experiment in a line: Myocardial oxygen consumption (MV02) and epicardial ST segment elevation experiments. It counts as in vivo. The following applies: for myocardial oxygen consumption and myocardial injury: dogs, varying dosages. From the text:
These changes were due to lower. myocardial oxygen consumption during the occlusion with berberine treatment. […] This is quite an advanageous therapeutic combination of properties which further distinguish the compounds used in the invention from the conventional drugs.

A further series has as its system closed-chest dogs. Nature of the series: Protocol TE: electrophysiologic properties in closed-chest dogs. It counts as in vivo. The following applies: for result when substituted in the electrophysiologic experiments: dog, in vivo. The procedure: Experiments were carried out to analyze the electrophysiologic properties of berberine (portocol TE). In this protocol closed-chest dogs were anesthetized with intravenous pentobarbital (30 mg/Kg). Electrode catheters were placed, under fluoroscopy, in the high right atrium, right venticle, and in the aorta near the non-coronary aortic cusp to record His bundle potential. In addition aortic pressure (Statham gauge) and surface ECG were obtained. All parameters were recorded on an Electronic for Medicine polygraph (Model DR 8), with a paper speed of 100 mm/sec. The recordings were obtained before berberine treatment and after five successive five minute infusions of 0.2 mg/Kg/min of berberine in each one of the dogs. At each one of these time intervals recordings were done with the "spontaneous" normal sinus rhythm and with atrial and ventricular extrastimuli were given during the normal sinus as well as during the pacing phases of the experiment to determine the refractory period of the artria, atrio-ventricular node and of the His-Purkinje system and ventricle. Moreover, sinus node recovery time was measured.

The subject of series [1] is closed-chest anesthetized dogs. The following applies: for change of diastolic pressure: berberine in addition to digitalis; for antiarrhythmic and antiarrhythmogenic result in the ouabain experiment: dog, in vivo. The procedure:
A study was carried out to examine the effects of the simultaneous administration of berberine on digitalis (i.e. ouabain) produced arrhythmias.
The experiments were conducted in closed-chest anesthetized dogs which were randomized to three groups. All received ouabain 0.03 mg/Kg as a bolus intravenously and thereafter a continuous infusion with a constant rate of 0.0006 mg/Kg/min until death. […] The second group received simultaneously berberine 1 mg/Kg intravenously as a bolus and then 0.2 mg/Kg/min as a continous infusion. The third group received berberine only after the appearance of VEA in a frequency of 50% of more of all systoles.
Moreover, the effects of intravenous bolus injection of berberine (0.4 to 1 mg/Kg) was studied (in comparison to dextrose 5% injection).

Series [2] has as its system anesthetized closed chest dogs. The experiment in a line: Association of ouabain and berberine on contractility (LV dP/dt), constant systolic pressure. It counts as in vivo. The settings on record: for increase of LV dP/dt, of the initial LV dP/dt: berberine 0.7 mg/Kg/min after ouabain; for increases in dP/dt: only berberine 0.7 mg/Kg/min without digitalis. The procedure:
In anesthetized closed chest dogs the systolic arterial pressure was maintained constant with a reservoir full of heparinized blood (as in protocol "M" and "Z" described above) and a "pigtail" and Millar catheter were introduced into the left ventricular cavity (as in protocol "Z" and "HV", described above). All data was recorded on 8 channel polygraph (Gould Instruments) with a paper speed of 200 mm/s when necessary and at 2 mm/s constantly.

Series [3] relates to closed-chest barbiturate anesthetized dogs. Nature of the series: Endotoxic (LPS) shock in dogs. It counts as in vivo. The procedure:
Nineteen closed-chest barbiturate anesthetized with artificial respiration dogs were studied. All measurements were done by the technique described before LPS.
At this time, i.e., two hours and fifteen minutes after administration of LPS, 1000 ml of 5% of dextrose in water was administered to all dogs during the next forty-five minutes.
Urinary output during the second hour of shock (before berberine or placebo treatments) and the third hour of shock (when the dogs were treated with either berberine of placebo) were compared in each dog. This analysis is of crucial importance since it would indicate the restoration of effective organ perfusion which in the case of the kidneys results in urinary output.

Setting [4] is: five successive five minute infusions of 0.2 mg/Kg/min.
[5] abbreviates: berberine started after the appearance of 50% of VEA.

The structures appear in SMILES notation. Read-outs that look alike come from different tables or passages of the source.

For the compound `COc1ccc2cc3[n+](cc2c1OC)CCc1cc2c(cc1-3)OCO2` [berberine], the “epicardial ST segment elevations” value in the series on dogs (after coronary artery occlusion) is “did not change them”. Further, the “myocardial injury (epicardial ST segment elevations)” value in the series on dogs (consecutive occlusions, 0.2 mg/kg/min, vs control occlusion, pilot experiments) was “less myocardial injury”. In addition, the myocardial oxygen consumption result with dogs (dogs with acute left ventricular failure, effect greater than that of ouabain) is “significantly reduced”; with dogs (dogs without coronary artery occlusion), “reduction in myocardial oxygen consumption”. The “mycardial oxygen consumption (MV02)” value in the series with dogs (non-failing heart, 0.02 mg/kg.min) is given as “did not change”. The “A-H, H-V and QRS intervals” value in the series with closed-chest dogs (setting [4]) is recorded as “did not change”. Besides, the Sinus node recovery entry in the series on closed-chest dogs (setting [4]) is recorded as “did not change”. Further, the artrial refractory period entry with closed-chest dogs (setting [4]) is listed as “did not change”. For the same compound, in the series with closed-chest dogs (setting [4]), the “change of QTc” value was 13%. Also, the “decrease of heart rate” value in the series with closed-chest dogs (setting [4]) worked out at 8%. Further, the “increase of ventricular effective refractory period” value with closed-chest dogs (setting [4]) turned out to be 11%. Besides, the “occurrence of any arrhythmias (VEA more than 25%, VT or death)” value in series [1] (after 60 minutes, all sixteen controls had) was “three had arrhythmias and six did not”; in series [1] (after 90 minutes, all controls had), “four had arrhythmias and five did not”; in series [1] (at 30 minutes, control twelve had, four did not), “one had arrhythmia and eight did not”; in series [1] (at 45 minutes, control fourteen had, two did not), “three had arrhythmias and six had not”. Besides, the “change of diastolic pressure” value in series [1] (10 minutes) is listed as -9±5%; in series [1] (20 minutes), -13±9%; in series [1] (30 minutes), -13±10%; in series [1] (60 minutes), -20±11%. Besides, the “amount of ouabain that provoked VT” value in series [1] (setting [5]) was 0.080 mg/kg. Further, in series [1] (setting [5]), the “delay of the appearance of sustained VT” value was “more than 250%”. Moreover, in series [1] (berberine started after the appearance of 50% of VEA, control 30.1±6.5), the “time of appearance of sustained VT” value turned out to be 84.5 ± 13.8 min. In addition, the “dose of ouabain to provoke VT” value in series [1] (berberine treated dogs (simultaneous)) turned out to be 0.088 mg/kg. In series [1] (intravenous bolus 0.4 to 1 mg/Kg, placebo none of twelve), the “injections effective in reverting VT into sinus rhythm within five minutes” value was 30 out of 41. Further, in series [1] (ouabain infusion + simultaneous berberine 1 mg/Kg bolus then 0.2 mg/Kg/min, controls 22±4.7), the “time of appearance of 25% of VEA” value was 66.5 ± 14.6 min. Also, the “prolongation of the time of appearance of VEA and VT” value in series [1] (simultaneous berberine) is reported as “around 300%”. For the same compound, the “time of appearance of 50% of VEA” value in series [1] (simultaneous berberine, controls 23.9±4.7) is 66.7 ± 15.3 min. The “time of appearance of VT” value in series [1] (simultaneous berberine, controls 30.1±6.5) is 96.1 ± 15.1 min. In series [1] (two berberine dogs), the ventricular fibrillation entry is recorded as “ventricular fibrillation reverted without any other therapy”. Further, the “increase of LV dP/dt, of the initial LV dP/dt” value in series [2] (5 minutes) is on record as 87±10%; in series [2] (10 minutes), 82±13%; in series [2] (15 minutes) it was 87±13%; in series [2] (20 minutes), 95±16%; in series [2] (25 minutes), 96±16%; in series [2] (30 minutes) it was 94±14%. The “combined effect with ouabain on contractility” value in series [2] (dog, in vivo) was “more than additive but synergistic”. Besides, the “increases in dP/dt” value in series [2] (5 minutes) is on record as 30±4%; in series [2] (10 minutes), 36±3%; in series [2] (15 minutes) it was 39±3%; in series [2] (20 minutes) it was 42±5%; in series [2] (25 minutes) it was 39±5%; in series [2] (30 minutes), 40±7%. Moreover, the “systemic systolic arterial pressure” value in series [3] (after 1000 ml of 5% dextrose in water, controls 107±5, before shock 136±10) was found to be 127±6 mmHg. Besides, the “dP/dt higher than before shock” value in series [3] (after dextrose) is recorded as “approximately 50%”. For the same compound, the peak left ventricular dP/dt worked out at 3740 ± 305 mmHg/s in series [3] (after dextrose, before shock 2565±166) and 2062±204 mmHg/s in series [3] (within fifteen minutes of treatment, control 1050±145). Further, in series [3] (dog, in vivo), the “cardiac arrhythmias or conduction defect” value is “No cardiac arrhythmias or conduction defect was observed”. In addition, the “increase of urinary output from the second (pre-treatment) to the third (treatment) hour” value in series [3] (first statement, control -51.7±32.9) is 30.5 ± 32.9 mL/h; in series [3] (second statement), 30.5±14.3 mi. The “minimal dose that results in an elevation of systemic systolic arterial pressure by at least 5 mmHg” value in series [3] (two hours after LPS 5 mg) stood at 0.053 ± 0.008 mg/kg/min. Besides, the “pulse pressure (systolic minus diastolic pressures)” value in series [3] (within fifteen minutes of treatment, from 24±2) was 32±2 mmHg. The compound also showed a systolic pressure in series [3] (within fifteen minutes of treatment, placebo 50±6) of 66±4 mmHg.
Take `COc1ccc2cc3[n+](cc2c1O)CCc1cc2c(cc1-3)OCO2` [berberrubine]: the “myocardial oxygen consumption and myocardial injury” value in the series with dogs is “reduction on myocardial oxygen consumption and less myocardial injury than the control”. Moreover, the “result when substituted in the electrophysiologic experiments” value with closed-chest dogs was “likewise”. Further, the “antiarrhythmic and antiarrhythmogenic result in the ouabain experiment” value in series [1] is “satisfactory results”. In addition, the “result in the association with ouabain” value in series [2] (dog, in vivo) was “perform in the same manner”. Also, the “control of endotoxic shock caused by LPS” value in series [3] (dog, in vivo) is given as “comparable results”.
Turning to `COc1cc2c(cc1O)C[C@H]1c3cc(O)c(OC)cc3CCN1C2` [coreximine], the “myocardial oxygen consumption and myocardial injury” value with dogs is “reduction on myocardial oxygen consumption and less myocardial injury than the control”. In addition, the “result when substituted in the electrophysiologic experiments” value with closed-chest dogs was “comparable results are shown”. Further, in series [1], the “antiarrhythmic and antiarrhythmogenic result in the ouabain experiment” value is “satisfactory results”. In addition, the “result in the association with ouabain” value in series [2] (dog, in vivo) was “perform in the same manner”. The “control of endotoxic shock caused by LPS” value in series [3] (dog, in vivo) is “comparable results”.

For the origin of these results see patent EP0108147B1, “Use of a protoberberine alkaloid and composition containing same” (MAROKO, Peter R., priority 1982, dated 1983).
